# Publication PMC9176655, “Nebulized fusion inhibitory peptide protects cynomolgus macaques from measles virus infection” (Research Square, 2022)
# Columns and labels:
# [1] = cynomolgus monkey, in vivo
# Experimental: Following European recommendations, 2 five-year-old healthy female cynomolgus macaques, 3–4 kg, were housed under conventional conditions in the animal facility. […] Animals were acclimatized to laboratory conditions and trained to breathe an aerosol with a facemask spontaneously. Aerosol generated from 3 ml of 0.9% NaCl mixed with 74 MBq of DTPA radiolabeled with technetium 99m (^99mTc-DTPA) was administered through a facemask connected to the prototype mesh nebulizers, as used in MeV infection experiments (Fig. 2a). Deposition of aerosol was extrapolated based on the ^99mTc-DTPA signal measured at the end of the nebulization using a gamma camera (Orbiter 75 Ecam, Siemens healthcare, Erlangen, Germany)[68]. The nebulizer charge was measured by counting the radioactivity in the syringe (that contained ^99mTc-DTPA) before and after loading the nebulizers. Immediately after aerosol delivery, the animals were imaged using the gamma camera. The post-anterior static scintigraphy acquisition was performed for 120s. The amount of ^99mTc-DTPA deposited into airways and stomach and remaining in the nebulizer was determined from the digitalized images taking into account the tissue attenuation coefficients, previously determined by perfusion scintigraphy (intravenous injection of ^99mTc-macroagregates of albumin). […]
# [2] = Laser diffraction and nebulizer performance of aerosol from prototype mesh nebulizer; format: physicochemical; details: 3 ml of 4 mg/ml, mean + SD of four devices
# Experimental: The aerodynamic performances of the aerosols generated by the prototype mesh nebulizer were determined by laser diffraction using a Spraytec™ instrument (Malvern Instruments Ltd., Malvern, UK) and the Spraytec inhalation cell (Malvern Instruments Ltd., Malvern, UK) connected to an aspiration carried out by a vacuum pump set to 30–50L/min [69]. The prototype mesh nebulizers (n=4) were loaded with 3 ml of either NaCl 0.9% or the HCR4 peptide (4 mg/ml, dissolved as described above) and then connected to the inhalation cell. Nebulization duration was notified at the end of the complete aerosolization of the loaded 3 ml. Diffraction data and volume distribution were automatically registered by the Spraytec software.
# The output of nebulizer was determined by the difference between the weight of the nebulizer before and after nebulization and was expressed in percentage of the loaded volume. The output rate of each nebulizer (in ml/min) was then determined as the ratio between the output and the nebulization duration. At least, the residual volume corresponding to the volume of liquid remaining in the reservoir at the end of the nebulization was also determined by weighting the nebulizer before loading it and after nebulization.
# 25 Table S1. […]
# 28 1 VMD for Volume Median Diameter, presents the mean size of generated aerosols, measured by […]
# [3] = system: MeV IC323-eGFP; test: Serial viral passaging in presence of peptide, sequencing for escape variants; details: 1μM peptide added after infection, 8 serial passages on Vero SLAM cells, 100 PFU per passage, sequencing of viral RNA
# [4] = system: MeV IC323-eGFP; test: Nebulized peptide in MeV-infected cynomolgus macaques; details: absence of fluorescent rash, PBMC infection, viremia, viral shedding, MeV-specific immune response
# Text: To assess antiviral efficacy of nebulized HRC4 peptide in NHPs, groups of 3 animals were infected with 10^4 PFU MeV IC323-eGFP by intra-tracheal inoculation, and either mock-treated with nebulized saline solution (C1, C2, and C3) or treated with nebulized HRC4 peptide (P1, P2, and P3) twenty-four and six hours before infection and twenty-four hours after infection (Fig. 6a). The NHPs were housed in cages accommodating two animals per cage for ethical reasons, so that one cage contained one peptide-treated and one saline-nebulized macaque.
# (a) Experimental design: cynomolgus monkeys (3 animals/group) were either nebulized with 3 ml of NaCl 0.9% (control group, C) or with 3 ml HRC4 peptide 4 mg/ml (experimental group, P), 24 h and 6 h before and 24 h after intra-tracheal infection with 10^4 PFU MeV IC323 eGFP. Blood samples were taken every 3 days for the first 16 days and fluorescence of the skin and mucosa tested at that time points. (b) Macroscopic manifestation of MeV infection, typical fluorescent rash observed on tongue, skin (back and chin) and palate (marked with white arrows), monitored under anesthesia using a blue light with orange filter. […] (d) Analysis of viremia by quantification of the percentage of GFP^+ peripheral blood mononuclear cells (PBMC) in the blood by flow cytometry and MeV-specific RNA in PBMCs and in throat swabs by RT-qPCR, during the course of infection. […]
# [5] = system: MeV; details: cell culture and organotypic brain cultures; cited from earlier work
# [6] = system: MeV; details: intranasal administration, cited from earlier work
# Text: MeV uses several receptors to infect target cells. […] Infection is initiat ...
# [7] = system: MeV; test: Plaque reduction assay on Vero-hSLAM cells; details: prototype mesh nebulizer
# [8] = Solubility of peptide for nebulization; format: physicochemical; details: dissolved in filtered Milli-Q water to 4 mg/ml, pH adjusted to 7, HEPES buffer
SMILES,"Deposition in macaque, Lungs [1]",VMD ([2]; laser diffraction (Spraytec)) [μm],< 5µm ([2]; percentage of particles smaller than 5 µm),Mutations in MeV F after 8th passage [3],Development of MeV infection [4],Inhibition of the fusion process [5],Survival of mice ([6]; humanized transgenic mouse models of lethal measles disease),Viral titer in cotton rat lungs [6],Antiviral activity after versus before nebulization [7],Solubility [8]
"O=C([O-])CN(CCN(CC(=O)[O-])CC(=O)[O-])CCN(CC(=O)[O-])CC(=O)[O-].[99Tc+4] [99mTC-DTPA, DTPA radiolabeled with technetium 99m]",11.4 +/- 3.1%,–,–,–,–,–,–,–,–,–
CC[C@H](C)[C@H](NC(=O)[C@H](C)NC(=O)[C@H](CC(N)=O)NC(=O)CNC(=O)[C@H](CC(C)C)NC(=O)[C@H](CC(N)=O)NC(=O)[C@@H](NC(=O)CNC(=O)[C@@H](NC(=O)[C@H](CC(=O)O)NC(=O)[C@H](CC(C)C)NC(=O)[C@H](CCCNC(=N)N)NC(=O)[C@H](CCC(=O)O)NC(=O)[C@H](CC(C)C)NC(=O)[C@H](CO)NC(=O)[C@@H](NC(=O)[C@@H]1CCCN1C(=O)[C@@H]1CCCN1)[C@@H](C)CC)C(C)C)[C@@H](C)O)C(=O)N[C@@H](C)C(=O)N[C@@H](CCCCN)C(=O)N[C@@H](CC(C)C)C(=O)N[C@@H](CCC(=O)O)C(=O)N[C@@H](CC(=O)O)C(=O)N[C@@H](C)C(=O)N[C@@H](CCCCN)C(=O)N[C@@H](CCC(=O)O)C(=O)N[C@@H](CC(C)C)C(=O)N[C@@H](CC(C)C)C(=O)N[C@@H](CCC(=O)O)C(=O)N[C@@H](CO)C(=O)N[C@@H](CO)C(=O)N[C@@H](CC(=O)O)C(=O)N[C@@H](CCC(N)=O)C(=O)N[C@H](C(=O)N[C@@H](CC(C)C)C(=O)N[C@@H](CCCNC(=N)N)C(=O)NCC(=O)N[C@@H](CO)C(=O)NCC(=O)N[C@@H](CO)C(=O)NCC(=O)N[C@@H](CSC1CC(=O)N(CCCC(=O)NCCOCCOCCOCCOCCC(=O)NCCN(CCNC(=O)CCOCCOCCOCCOCCNC(=O)CCCN2C(=O)CC(SC[C@H](NC(=O)CNC(=O)[C@H](CO)NC(=O)CNC(=O)[C@H](CO)NC(=O)CNC(=O)[C@H](CCCNC(=N)N)NC(=O)[C@H](CC(C)C)NC(=O)[C@@H](NC(=O)[C@H](CCC(N)=O)NC(=O)[C@H](CC(=O)O)NC(=O)[C@H](CO)NC(=O)[C@H](CO)NC(=O)[C@H](CCC(=O)O)NC(=O)[C@H](CC(C)C)NC(=O)[C@H](CC(C)C)NC(=O)[C@H](CCC(=O)O)NC(=O)[C@H](CCCCN)NC(=O)[C@H](C)NC(=O)[C@H](CC(=O)O)NC(=O)[C@H](CCC(=O)O)NC(=O)[C@H](CC(C)C)NC(=O)[C@H](CCCCN)NC(=O)[C@H](C)NC(=O)[C@@H](NC(=O)[C@H](C)NC(=O)[C@H](CC(N)=O)NC(=O)CNC(=O)[C@H](CC(C)C)NC(=O)[C@H](CC(N)=O)NC(=O)[C@@H](NC(=O)CNC(=O)[C@@H](NC(=O)[C@H](CC(=O)O)NC(=O)[C@H](CC(C)C)NC(=O)[C@H](CCCNC(=N)N)NC(=O)[C@H](CCC(=O)O)NC(=O)[C@H](CC(C)C)NC(=O)[C@H](CO)NC(=O)[C@@H](NC(=O)[C@@H]3CCCN3C(=O)[C@@H]3CCCN3)[C@@H](C)CC)C(C)C)[C@@H](C)O)[C@@H](C)CC)[C@@H](C)CC)C(=O)O)C2=O)CCO[C@H]2CC[C@@]3(C)C(=CC[C@H]4[C@@H]5CC[C@H]([C@H](C)CCCC(C)C)[C@@]5(C)CC[C@@H]43)C2)C1=O)C(=O)O)[C@@H](C)CC (stereo partly shown) [HRC4],–,4,Approximately 58%,no mutations,abrogated the development of MeV infection in two out of three animals,inhibited the fusion process,significant increase in survival of mice,reduction of the viral titer in cotton rat lungs,did not cause any loss of activity,soluble in water
